# Laboratory results taken from patent US20180318355A1, “METHODS AND COMPOSITIONS FOR IMPROVED TISSUE REGENERATION BY SUPPRESION OF INTERFERIN-GAMMA AND TUMOR NECROSIS FACTOR-ALPHA” (Alfred E. Mann Institute for Biomedical Eng. at the …, priority 2011, published 2018).
# “Also recorded” adds a separate entry of the source.
# Key:
# [1] = test system: BMMSC-mediated bone formation; assay: BMMSC-mediated bone formation, subcutaneous BMMSC/HA/TCP implantation; type: in vivo; conditions: immunocompromised mice
# Description: BMMSC-mediated bone formation. Approximately 4.0×10^6 BMMSCs were mixed with hydroxyapatite/tricalcium phosphate (HA/TCP) ceramic particles (40 mg, Zimmer Inc., Warsaw, Ind.) as a carrier and subcutaneously implanted into the dorsal surface of 8-10 weeks old immunocompromised mice or C57BL/6J mice. At eight weeks post-implantation, the implants were harvested, fixed in 4% paraformaldehyde and then decalcified with 5% EDTA (pH 7.4), followed by paraffin embedding. The 6 μm paraffin sections were stained with hematoxylin and eosin (H&E) and analyzed by an NIH Image J. Five fields were selected and newly formed mineralized tissue area in each field was calculated and shown as a percentage to total tissue area.
# Cytokines in BMMSC-mediated bone formation. Approximately 4.0×10^6 of littermate-derived or autologous BMMSCs were mixed with HA/TCP ceramic powders (40 mg, Zimmer Inc.), and hydrogel (Glycosan Biosysterms, Salt Lake City, Utah) with 200 ng IFN-γ, TNF-α, IL-4, IL-6 or IL-17A were covered on the surface of the implants as a slow released system. At eight weeks post-implantation, the implants were harvested and newly formed mineralized tissue areas were analyzed. […]
# BMMSC-mediated bone formation. Approximately 4.0×10^6 of littermate-derived or autologous BMMSCs were mixed with hydroxyapatite/tricalcium phosphate (HA/TCP) ceramic particles (40 mg, Zimmer Inc., Warsaw, Ind.) as a carrier and subcutaneously implanted into the dorsal surface of 8-10 weeks old immunocompromised mice or C57BL6 mice. When aspirin was used, BMMSCs were treated with 50 μg/ml aspirin for 2 days and mixed with HA/TCP particles to be subcutaneously implanted into immunocompromised mice. When IFN-γ and TNF-α were used in the subcutaneous implants, 200 ng IFN-γ, TNF-α or/and 100 μg aspirin mixed with 250 μl hydrogel as a slow released system and subcutaneously co-implanted to the dorsal surface of 8-10 weeks old immunocompromised mice.
# At eight weeks post-implantation, the implants were harvested, fixed in 4% paraformaldehyde and then decalcified with 5% EDTA (pH 7.4), followed by paraffin embedding. The 6 μm paraffin sections were stained with hematoxylin and eosin (H&E) and analyzed by an NIH Image J. Five fields were selected and newly formed mineralized tissue area in each field was calculated and shown as a percentage to total tissue area.
# IFN-γ = assay: ELISA of IFN-γ level in BMMSC implants; type: in vivo, mice; conditions: aspirin treatment vs untreated control, 2 to 14 days post implantation
# Source text: (§1) Kits. Pan T cell isolation kit II and CD4^+CD25^+ regulatory T Cell isolation kit were purchased from Miltenyi Biotec (Bergisch Gladbach, Germany). Mouse IFN-γ, TNF-α, IL-6, IL-17A, IL-4 and IL-10 ELISA Ready-SET-GO kits were purchased from eBioscience (San Diego, Calif.). siRNA kits for Fas, Smad 6, TNFR2, IKK, FLIP and XIAP were purchased from Santa Cruz Biosciences (Santa Cruz, Calif.).
# TNF-α = assay: ELISA of TNF-α level in BMMSC implants; type: in vivo, mice; conditions: aspirin treatment vs untreated control, 2 to 14 days post implantation
# Source text: as §1
# IL-10 = assay: ELISA of IL-10 level in BMMSC implants; type: in vivo, mice; conditions: aspirin treatment vs untreated control, 2 to 14 days post implantation
# Source text: as §1
# IFN-γ positive cells = assay: Immunohistochemical staining of IFN-γ positive cells in BMMSC implants; type: in vivo; conditions: aspirin treated vs untreated control, C57BL6 mice
# Description: (§2) Immunofluorescent and immunochemical microscopy. The transplants were harvested, fixed in 4% paraformaldehyde and then decalcified with 5% ethylenediaminetetraacetic acid (EDTA, pH 7.4), followed by paraffin or optimal cutting temperature compound (OCT, Sakura Fineteck Inc., Torrance, Calif.) embedding. The paraffin or frozen sections were blocked with normal serum matched to secondary antibodies, incubated with the specific or isotype-matched mouse antibodies (1:200) overnight at 4° C. For immunofluorescent staining, the samples were treated with Rhodamin/FITC-conjugated secondary antibodies (1:200, Jackson ImmunoResearch, West Grove, Pa.; Southern Biotechnology, Birmingham, Ala.), and were mounted by means of a vectashield mounting medium containing 4′,6-diamidino-2-phenylindole (DAPI) (Vector Laboratories, Burlingame, Calif.). For immunochemical staining, the samples were stained by using Zymed SuperPicture™ Kit (Invitrogen Corporation) according to the manufacturer's instruction.
# (§3) Immunochemical microscopy. The transplants were harvested, fixed in 4% paraformaldehyde and then decalcified with 5% ethylenediaminetetraacetic acid (EDTA, pH 7.4), followed by paraffin or optimal cutting temperature compound (OCT, Sakura Fineteck Inc., Torrance, Calif.) embedding. […]
# TNF-α positive cells = assay: Immunohistochemical staining of TNF-α positive cells in BMMSC implants; type: in vivo; conditions: aspirin treated vs untreated control, C57BL6 mice
# Description: as §2, §3
# GFP^+ BMMSCs = assay: Cell survival assay, subcutaneous GFP+ BMMSC implantation; type: in vivo, mice; conditions: 50 μg/ml aspirin pre-treated 2 days, 100 μg aspirin co-implanted, 4 to 30 days post implantation
# Description: Cell survival assay. 4×10^6 BMMSCs isolated from C57BL/6-Tg (CAG-EGFP)1Osb/J mice were combined with different concentrations of IFN-γ (0, 20, 50, 100, 200 ng/ml) and TNF-α (0, 20, 50, 100, 200 ng/ml) and subcutaneously transplanted into immunocompromised mice, hydrogel was used as a slowly released carrier. Thirty days after translation, the implants were harvested and digested in a solution of 3 mg/mL collagenase type I (Worthington Biochem) and 4 mg/mL dispase (Roche) for 1 h at 37° C. Single-cell suspensions were obtained by passing the cells through a 70 μm strainer (BD Bioscience). 1.0-1.5×10^6 BMMSCs were seeded into 100 mm culture dishes (Corning) and incubated for 48 hours under 37° C. at 5% CO2 condition. To eliminate the non-adherent cells, the cultures were washed with PBS twice. The attached cells were cultured for 10 days with alpha minimum essential medium (α-MEM, Invitrogen) supplemented with 20% FBS, 2 mM L-glutamine (Invitrogen), 55 μM 2-mercaptoethanol (Invitrogen), 100 U/ml penicillin, and 100 μg/ml streptomycin (Invitrogen). The numbers of GFP positive cells were counted under fluorescent microscopy.
# calvarial bone defects = assay: Calvarial bone defect repair by BMMSC/gelfoam implantation; type: in vivo, C57BL/6J mice
# Description: Calvarial bone defect model in C57BL/6J mice. The skin of C57BL/6J mice was cut and periosteum was elevated. The surface of mouse cavarial bone was exposed, and oversize bone defects of 7 mm×8 mm were established. The bone defect was larger than usually critical size with diameter of 4 mm.
# Implantation of BMMSCs to calvarial bone defects in C57BL/6J mice. 4×10^6 BMMSCs were seeded to a size of 7 mm×8 mm gelfoam (Pharmaca, Boulder, Colo.) and cultured for 3 days in vitro. The gelfoam with BMMSCs was placed to the calvarial bone defects and covered completely by skins. For aspirin treated group, the BMMSCs seeded on gelfoam were pretreated with 50 μg/ml aspirin for 3 days, then placed to the calvarial bone defect. Another gelfoam with 100 μg aspirin as a releasing system was covered on the surface of the gelfoam with BMMSCs (FIG. 14).
# [2] = test system: osteoclastogenesis, osteogenesis; conditions: literature (13-15); cited from earlier work
compound,measurement,setting,value
CC(=O)Oc1ccccc1C(=O)O [aspirin],BMMSC-mediated bone formation suppressed by IFN-γ or TNF-α,"[1]; 200 ng IFN-γ or TNF-α co-implanted, 50 μg/ml aspirin pre-treatment and 100 μg aspirin co-implanted",significant rescuing of BMMSC-mediated bone formation; also recorded: restored bone formation
same,amount of new bone formation,"[1]; BMMSCs treated with 50 μg/ml aspirin for 2 days, HA/TCP, vs untreated control",increased
same,level of IFN-γ in BMMSC implants,IFN-γ,reduces; also recorded: suppressed
same,level of TNF-α in BMMSC implants,TNF-α,reduces; also recorded: suppressed
same,level of IL-10 in BMMSC implants,IL-10,not and without affecting
same,IFN-γ positive cells in BMMSC implants,IFN-γ positive cells,significantly decreased; also recorded: suppressive effect
same,TNF-α positive cells in BMMSC implants,TNF-α positive cells,significantly decreased; also recorded: suppressive effect
same,numbers of surviving GFP positive BMMSCs in implants,GFP^+ BMMSCs,significantly increased numbers of survival cells; also recorded: significant increase in survival of BMMSCs
same,repair of 7×8 mm calvarial bone defects,"calvarial bone defects; BMMSCs cultured with 50 μg/ml aspirin, gelfoam containing 100 μg aspirin, 12 weeks, microQCT, vs BMMSC/gelfoam",completely repaired; also recorded: significantly improves BMMSC-based calvarial defect repairing; also recorded: marked improvement in repairing calvarial defects
same,structure of regenerated tissues versus normal calvarial tissues,calvarial bone defects; BMMSCs with gelfoam containing aspirin (100 μg),analogous to normal calvarial tissues
same,osteoclastogenesis,[2],inhibits osteoclastogenesis
same,osteogenesis,[2],improves osteogenesis
